The results in this text go back to patent publication US20100248390A1, “COMPOSITIONS AND METHODS FOR IDENTIFYING LIGANDS OF ODORANT RECEPTORS” (DUKE UNIVERSITY, priority 2009, published 2010).

Holding throughout (assay): CRE-luciferase assay of odorant receptor activation (Dual-Glo, Hana3A cells, RTP1S), dose-response EC50
Common to all, as to assay type: cell-based

In assay [1] the target is T1, human odorant receptors (ORs) (Homo sapiens, UniProt Q8TCB6).
T1 construct: OR open reading frames were amplified from genomic DNA; expressed in transfected cells; host or cells: Hana3A cells, co-transfected with RTP1S, CRE-luciferase and pRL-SV40
T1 sequence (Q8TCB6 1-318): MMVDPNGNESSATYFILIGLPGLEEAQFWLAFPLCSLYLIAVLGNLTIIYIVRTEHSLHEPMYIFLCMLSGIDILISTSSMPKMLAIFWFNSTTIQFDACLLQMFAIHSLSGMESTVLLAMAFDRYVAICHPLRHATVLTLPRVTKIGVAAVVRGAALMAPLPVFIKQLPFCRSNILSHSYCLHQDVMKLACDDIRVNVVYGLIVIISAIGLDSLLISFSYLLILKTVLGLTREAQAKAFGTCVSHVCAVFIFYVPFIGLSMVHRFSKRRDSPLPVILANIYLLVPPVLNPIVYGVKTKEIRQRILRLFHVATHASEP
Conditions: receptor OR51E1. The text has this:
(§1) Cloning mouse and human ORs. […] OR open reading frames were amplified from genomic DNA using proofreading KOD DNA polymerase (Toyobo/Novagen) and subcloned into pCI expression vectors (Promega) containing the first 20 residues of human rhodopsin (Rho tag). The sequences of the cloned receptors were verified by sequencing (3100 Genetic Analyzer, ABI Biosystems). Immunocytochemistry and FACS analysis. […] For FACS analysis, phycoerythrin (PE)-conjugated anti-mouse IgG (Jackson Immunologicals) was used. In order to monitor the transfection efficiency, Green Fluorescent Protein (GFP) was co-transfected with the OR. The intensity of receptor cell surface expression was calculated as the ratio of PE and GFP expression. 7-aminoactinomycin D (Calbiochem) was added before flow cytometry to mark dead cells which were excluded from the analysis. The gate and mean of PE positive cells was normalized by GFP values. Luciferase assay. […] Odorant receptor activation leads to an increase in intracellular cAMP; CRE-luciferase (Stratagene) was used to measure this change. […] Hana3A cells were plated on poly-D-lysine-coated 96-well plates (BioCoat; Becton Dickinson). […] For each 96-well plate transfected, 1 μg of CRE-Luc, 1 μg of pRL-SV40, 5 μg of odorant receptor plasmid, and 1 μg of RTP1S was used. Approximately 24 hours post transfection, the medium was replaced with CD293 chemically defined medium (Gibco) and the plate was incubed for 30 min at 37° C. The medium was then replaced with 25 μL of odorant solution diluted in CD293 and the plate was incubated for 4 hrs at 37° C. and 5% CO2. The manufacturer's protocols for measuring luciferase and Renilla luciferase activities was followed. […] All luminescence values were divided by the Renilla Luciferase activity to control for transfection efficiency in a given well. Normalized luciferase activity was calculated using the formula (LN−Lmin)/(Lmax−Lmin), where LN is the luminescence of firefly luciferase in response to the odorant, Lmin is the minimum luciferase value on a plate or set of plates, and Lmax is the maximum luciferase value on a plate or set of plates. The data was analyzed using Microsoft Excel and GraphPad Prism 4. Screening procedure. The entire OR library was stimulated with eight separate odorant mixtures formed from 93 odorants (FIG. 12). […] A comparison between the 93 individual odorants at a 100 μM dose and a no-odor control was performed for all 290 […]. Each comparison was performed in triplicate; statistical significance was assessed by t-test (uncorrected for multiple comparisons). […] A single odorant was used on each plate to avoid cross-contamination, and each OR odorant dose was tested at least three times. The data was fit to a sigmoidal curve. […] Physicochemical descriptors. […] Receptor descriptors. […] Correlations between descriptors and responses. […] All odorants for which there were fewer than 3 responsive receptors were eliminated. […] The Pearson correlation between these two sets of distances was then measured. Optimizing descriptors. […] In this method one begins with an empty set of descriptors. Each descriptor is combined with the previous set of descriptors and correlation values are computed for all of these candidate sets of descriptors. To reduce overfitting, the data is randomly divided into ten subsets and correlation values are computed for each leave-one out subset. The final correlation coefficient for each set of descriptors is the average of the correlation coefficients for each subset.
(§2) The entire OR library was stimulated with one of 8 odorant mixtures drawn from 93 odorants chosen to represent diverse functional groups, sizes, and structures (Table 3). Each mixture was applied at five different concentrations. […] The 93 odorants were then applied individually at 100 μM to the 290 mixture-responsive ORs.

Assay [2] concerns mouse odorant receptors (ORs). Conditions: for log EC50, MOR203-1: receptor MOR203-1; for log EC50, MOR261-1: receptor MOR261-1. An excerpt: Cloning mouse and human ORs. […] OR open reading frames were amplified from genomic DNA using proofreading KOD DNA polymerase (Toyobo/Novagen) and subcloned into pCI expression vectors (Promega) containing the first 20 residues of human rhodopsin (Rho tag). The sequences of the cloned receptors were verified by sequencing (3100 Genetic Analyzer, ABI Biosystems). Immunocytochemistry and FACS analysis. […] For FACS analysis, phycoerythrin (PE)-conjugated anti-mouse IgG (Jackson Immunologicals) was used. In order to monitor the transfection efficiency, Green Fluorescent Protein (GFP) was co-transfected with the OR. The intensity of receptor cell surface expression was calculated as the ratio of PE and GFP expression. 7-aminoactinomycin D (Calbiochem) was added before flow cytometry to mark dead cells which were excluded from the analysis. The gate and mean of PE positive cells was normalized by GFP values. Luciferase assay. […] Odorant receptor activation leads to an increase in intracellular cAMP; CRE-luciferase (Stratagene) was used to measure this change. […] Hana3A cells were plated on poly-D-lysine-coated 96-well plates (BioCoat; Becton Dickinson). […] For each 96-well plate transfected, 1 μg of CRE-Luc, 1 μg of pRL-SV40, 5 μg of odorant receptor plasmid, and 1 μg of RTP1S was used. Approximately 24 hours post transfection, the medium was replaced with CD293 chemically defined medium (Gibco) and the plate was incubed for 30 min at 37° C. The medium was then replaced with 25 μL of odorant solution diluted in CD293 and the plate was incubated for 4 hrs at 37° C. and 5% CO2. The manufacturer's protocols for measuring luciferase and Renilla luciferase activities was followed. […] All luminescence values were divided by the Renilla Luciferase activity to control for transfection efficiency in a given well. Normalized luciferase activity was calculated using the formula (LN−Lmin)/(Lmax−Lmin), where LN is the luminescence of firefly luciferase in response to the odorant, Lmin is the minimum luciferase value on a plate or set of plates, and Lmax is the maximum luciferase value on a plate or set of plates. The data was analyzed using Microsoft Excel and GraphPad Prism 4. Screening procedure. The entire OR library was stimulated with eight separate odorant mixtures formed from 93 odorants (FIG. 12). […] A comparison between the 93 individual odorants at a 100 μM dose and a no-odor control was performed for all 290 […]. Each comparison was performed in triplicate; statistical significance was assessed by t-test (uncorrected for multiple comparisons). […] A single odorant was used on each plate to avoid cross-contamination, and each OR odorant dose was tested at least three times. The data was fit to a sigmoidal curve. […] Physicochemical descriptors. […] Receptor descriptors. […] Correlations between descriptors and responses. […] All odorants for which there were fewer than 3 responsive receptors were eliminated. For all remaining odorant pairs the Pearson correlation between EC50 vectors and the Euclidean distance between descriptor vectors was calculated. The Pearson correlation between these two sets of distances was then measured. Optimizing descriptors. […] In this method one begins with an empty set of descriptors. Each descriptor is combined with the previous set of descriptors and correlation values are computed for all of these candidate sets of descriptors. To reduce overfitting, the data is randomly divided into ten subsets and correlation values are computed for each leave-one out subset. The final correlation coefficient for each set of descriptors is the average of the correlation coefficients for each subset. The set with the best correlation coefficient then becomes the new set of descriptors and the process is repeated until the correlation coefficient increases by less than 0.004 in three consecutive iterations.

Assay [3] addresses T2, human odorant receptors (ORs) (Homo sapiens, UniProt Q8WZ94).
T2 construct: OR open reading frames were amplified from genomic DNA; expressed in transfected cells; host or cells: Hana3A cells, co-transfected with RTP1S, CRE-luciferase and pRL-SV40
T2 sequence (Q8WZ94 1-311): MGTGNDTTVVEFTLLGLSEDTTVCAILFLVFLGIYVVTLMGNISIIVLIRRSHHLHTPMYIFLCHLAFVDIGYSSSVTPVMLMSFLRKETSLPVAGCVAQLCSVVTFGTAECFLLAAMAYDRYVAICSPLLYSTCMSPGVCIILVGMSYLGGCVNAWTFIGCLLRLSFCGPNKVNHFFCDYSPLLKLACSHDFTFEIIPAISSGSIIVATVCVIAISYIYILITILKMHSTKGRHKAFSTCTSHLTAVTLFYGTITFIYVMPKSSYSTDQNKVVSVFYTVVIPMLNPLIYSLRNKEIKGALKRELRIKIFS
Particulars: receptor OR5P3; 0 = no response; read-out: log EC50, OR5P3 (converted).
Source text: as §1, §2

Assay [4] deals with T3, human odorant receptors (ORs) (Homo sapiens, UniProt Q9Y3N9).
T3 construct: OR open reading frames were amplified from genomic DNA; expressed in transfected cells; host or cells: Hana3A cells, co-transfected with RTP1S, CRE-luciferase and pRL-SV40
T3 sequence (Q9Y3N9 1-320): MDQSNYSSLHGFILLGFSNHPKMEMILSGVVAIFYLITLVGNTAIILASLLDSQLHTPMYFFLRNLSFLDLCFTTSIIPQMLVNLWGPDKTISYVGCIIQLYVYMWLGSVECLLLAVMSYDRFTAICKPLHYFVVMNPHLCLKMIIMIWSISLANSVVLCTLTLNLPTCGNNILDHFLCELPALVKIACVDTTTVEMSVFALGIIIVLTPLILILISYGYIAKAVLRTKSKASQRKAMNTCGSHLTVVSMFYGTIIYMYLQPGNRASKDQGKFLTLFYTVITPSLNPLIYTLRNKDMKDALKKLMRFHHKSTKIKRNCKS
Conditions: receptor OR2W1; 0 = no response; read-out: log EC50, OR2W1 (converted).
Source text: as §1, §2

In assay [5] the target is T4, human odorant receptors (ORs) (Homo sapiens, UniProt O76002).
T4 construct: OR open reading frames were amplified from genomic DNA; expressed in transfected cells; host or cells: Hana3A cells, co-transfected with RTP1S, CRE-luciferase and pRL-SV40
T4 sequence (O76002 1-312): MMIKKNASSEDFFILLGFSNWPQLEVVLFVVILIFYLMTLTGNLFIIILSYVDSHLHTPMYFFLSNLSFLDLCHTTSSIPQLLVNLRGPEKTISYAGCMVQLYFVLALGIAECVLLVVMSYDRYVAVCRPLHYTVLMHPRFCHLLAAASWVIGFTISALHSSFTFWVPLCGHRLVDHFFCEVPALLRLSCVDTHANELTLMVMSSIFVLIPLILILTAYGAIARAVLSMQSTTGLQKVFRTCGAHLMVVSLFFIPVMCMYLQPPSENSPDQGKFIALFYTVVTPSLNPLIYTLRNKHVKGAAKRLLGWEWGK
Particulars: receptor OR2J2; 0 = no response; read-out: log EC50, OR2J2 (converted).
Source text: as §1, §2

Assay [6] deals with T5, human odorant receptors (ORs) (Homo sapiens, UniProt Q8NGJ5).
T5 construct: OR open reading frames were amplified from genomic DNA; expressed in transfected cells; host or cells: Hana3A cells, co-transfected with RTP1S, CRE-luciferase and pRL-SV40
T5 sequence (Q8NGJ5 1-315): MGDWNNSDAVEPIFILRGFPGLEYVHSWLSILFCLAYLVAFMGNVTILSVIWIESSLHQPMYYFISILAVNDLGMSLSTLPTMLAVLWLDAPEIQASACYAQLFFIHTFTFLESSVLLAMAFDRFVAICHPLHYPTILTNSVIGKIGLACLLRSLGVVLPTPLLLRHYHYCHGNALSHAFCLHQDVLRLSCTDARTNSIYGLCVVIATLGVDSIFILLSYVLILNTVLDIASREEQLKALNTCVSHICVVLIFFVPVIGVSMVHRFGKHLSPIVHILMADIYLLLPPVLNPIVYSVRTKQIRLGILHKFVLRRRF
Conditions: receptor OR51L1; read-out: log EC50 of odorant at OR51L1 (0 = no response) (converted).
Source text: as §1, §2

Usually EC50 stands for the concentration that produces a half-maximal response.

The structures appear in SMILES notation.

`CCCCOC(=O)C(C)OC(=O)CCC` (stereo not drawn) [Butyl butyryl actate]: the “log EC50 (Table 4 value), OR51E1” value in assay [1] is listed as −3.473.
As to `CCCCCCO` [1-Hexanol], the “log EC50, MOR41-1” value in assay [2] (receptor MOR41-1, 0 = no response) is on record as −4.064. In addition, the results for the half-maximal effective concentration (EC50) in assay [3] and in assay [4] were 175 µM and 14.1 µM, respectively.
Consider `CCCCCCCCO` [1-Octanol], for which, in assay [2] (0 = no response), the “log EC50, MOR203-1” value is on record as −3.563 and the “log EC50, MOR261-1” value is −5.192. The “log EC50, MOR268-1” value in assay [2] (receptor MOR268-1, 0 = no response) is −3.63. Moreover, the EC50 in assay [5] is 69.2 µM. Besides, the half-maximal effective concentration (EC50) in assay [4] was 7.45 µM.
`CCCCCCCCCO` [1-Nononol]: in assay [2] (0 = no response), the “log EC50, MOR203-1” value is −4.456 and the “log EC50, MOR261-1” value was −4.914. For the same compound, in assay [5], the EC50 was 69.2 µM. In addition, in assay [4], the EC50 was 23.4 µM.
For `CCCCCC(=O)O` [Hexanoic acid], the “log EC50 of odorant at MOR1-1 (0 = no response)” value in assay [2] (receptor MOR1-1) is on record as −4.625. Further, the concentration for a half-maximal effect (EC50) in assay [6] was 147 µM.
